The target of assay [1] is T1, human B1R (bradykinin receptor 1) (Homo sapiens, UniProt P46663).
T1 construct: expressed in transfected cells; host or cells: CHO K1 cells
T1 sequence (P46663 1-353): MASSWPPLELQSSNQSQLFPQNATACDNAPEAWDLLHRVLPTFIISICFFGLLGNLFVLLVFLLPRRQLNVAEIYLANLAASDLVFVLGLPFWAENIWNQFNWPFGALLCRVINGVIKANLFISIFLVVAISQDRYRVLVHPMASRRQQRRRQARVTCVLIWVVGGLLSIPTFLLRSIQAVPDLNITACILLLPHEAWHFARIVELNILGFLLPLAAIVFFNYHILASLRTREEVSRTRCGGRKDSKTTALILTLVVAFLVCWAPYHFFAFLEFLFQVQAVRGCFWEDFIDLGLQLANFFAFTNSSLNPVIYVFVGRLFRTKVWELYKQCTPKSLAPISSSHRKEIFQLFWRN
Briefly: FLIPR Ca2+ assay (Fluo-4) on CHO K1 cells stably transfected with the human B1R gene (hB1R cells): % inhibition at 10 μM / IC50, agonist Lys-Des-Arg9-bradykinin. In kind it is cell-based. Particulars: CHO-K1, human B1R. The gist of the method: (§1)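 Peak fluorescence counts read on FLIPR (λex 488, λem 540 nm) after two additions: compound first, then agonist at EC80 after 10–20 min. Human line challenged with Lys-Des-Arg9-bradykinin, rat line with Des-Arg9-bradykinin. Suppression of Ca2+ inflow expressed as % of maximum inhibition.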

The target in assay [2] is T2, rat B1R (bradykinin receptor 1) (Rattus norvegicus, UniProt P97583).
T2 construct: expressed in transfected cells; host or cells: CHO K1 cells
T2 sequence (P97583 1-337): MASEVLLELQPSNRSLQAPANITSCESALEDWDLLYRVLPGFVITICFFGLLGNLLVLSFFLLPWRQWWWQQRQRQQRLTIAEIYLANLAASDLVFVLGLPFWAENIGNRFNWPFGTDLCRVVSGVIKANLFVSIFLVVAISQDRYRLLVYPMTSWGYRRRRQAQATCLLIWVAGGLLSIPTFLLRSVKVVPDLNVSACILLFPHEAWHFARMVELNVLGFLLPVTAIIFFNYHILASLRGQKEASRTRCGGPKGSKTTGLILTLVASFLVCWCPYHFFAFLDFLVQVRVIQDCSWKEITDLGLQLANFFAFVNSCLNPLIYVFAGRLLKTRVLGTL
The experiment in a line: FLIPR Ca2+ assay (Fluo-4) on CHO K1 cells stably transfected with the B1R gene of the rat (rB1R cells): % inhibition at 10 μM / IC50, agonist Des-Arg9-bradykinin. It is filed as cell-based. As to conditions: CHO-K1, rat B1R. The gist of the method:
as §1

The term inhibition denotes the drop in the measured response relative to a control, in per cent. For `O=C(NC1CCc2ccc(C(=O)N3CCC4(CCC(n5ccnc5)CC4)CC3)cc21)c1ccccc1Cl` (stereo not drawn) [Example H-131, 2-Chloro-N-[6-[9-(1H-imidazol-1-yl)-3-azaspiro[5.5]undecane-3-carbonyl]-2,3-dihydro-1H-inden-1-yl]-benzamide], the inhibition at 10 µM in assay [1] worked out at 74%; in assay [2], 102%.

In the case of `CC1(C)CC(NC(=O)c2ccccc2Cl)c2cc(C(=O)N3CCC4(CCN(c5ccncc5)CC4)C3)ccc21` (stereo not drawn) [Example H-132, 2-Chloro-N-[3,3-dimethyl-6-(8-pyridin-4-yl-3,8-diazaspiro[4.5]decane-3-carbonyl)-1,2-dihydro-inden-1-yl]-benzamide], the inhibition at 10 µM worked out at 100% in assay [1] and 102% in assay [2].

On to `O=C(NC1CCc2ccc(C(=O)N3CCC4(CCC(c5ccncc5)CC4)C3)cc21)c1ccccc1Cl` (stereo not drawn) [Example H-133, 2-Chloro-N-[6-(8-pyridin-4-yl-3-azaspiro[4.5]decane-3-carbonyl)-2,3-dihydro-1H-inden-1-yl]-benzamide], for which the inhibition at 10 µM amounted to 65% in assay [1] and 100% in assay [2].

As for `Cc1ccc2n1C(=O)N([C@@H]1CCc3ccc(C(=O)N4CCC5(CCN(c6ccncc6)CC5)C4)cc31)C2` [Example H-134, 5-Methyl-2-[(1R)-6-(8-pyridin-4-yl-3,8-diazaspiro[4.5]decane-3-carbonyl)-2,3-dihydro-1H-inden-1-yl]-1,2-dihydro-pyrrolo[2.1-e]imidazol-3-one], the inhibition at 10 µM came to 99% in assay [1] and 103% in assay [2].

Turning to `O=C(N[C@@H]1CCc2ccc(C(=O)N3CCC4(CCC(c5cccnc5)CC4)C3)cc21)c1ccccc1Cl` (stereo partly drawn) [Example H-135, 2-Chloro-N-[(1R)-6-(8-pyridin-3-yl-3-azaspiro[4.5]decane-3-carbonyl)-2,3-dihydro-1H-inden-1-yl]-benzamide], the inhibition at 10 µM in assay [1] stood at 80%; in assay [2] it was 101%.

With `CN([C@@H]1CCc2ccc(C(=O)N3CCC4(CCN(c5ccncc5)CC4)C3)cc21)S(=O)(=O)c1ccccc1Cl` [Example H-136, 2-Chloro-N-methyl-N-[(1R)-6-(8-pyridin-4-yl-3,8-diazaspiro[4.5]decane-3-carbonyl)-2,3-dihydro-1H-inden-1-yl]-benzenesulfonic acid amide], the inhibition at 10 µM in assay [1] turned out to be 99%; in assay [2], 101%.

On to `O=C(c1ccc2c(c1)[C@H](N(CC(F)(F)F)C(=O)c1ccccc1Cl)CC2)N1CCC2(CCN(c3ccncc3)CC2)C1` [Example H-137, 2-Chloro-N-[(1R)-6-(8-pyridin-4-yl-3,8-diazaspiro[4.5]decane-3-carbonyl)-2,3-dihydro-1H-inden-1-yl]-N-(2,2,2-trifluoro-ethyl)-benzamide], for which the inhibition at 10 µM in assay [1] was 99%; in assay [2] it was 103%.

In the case of `O=C(NC1CCc2ccc(C(=O)N3CCCC4(CC3)CCN(c3ccncc3)CC4)cc21)c1ccccc1Cl` (stereo not drawn) [Example H-138, 2-Chloro-N-[6-(3-pyridin-4-yl-3,10-diazaspiro[5.6]dodecane-10-carbonyl)-2,3-dihydro-1H-inden-1-yl]-benzamide], the values for the inhibition at 10 µM in assay [1] and in assay [2] were 100% and 102%, respectively.

As for `COc1ccc(N2CCC3(CCN(C(=O)c4ccc5c(c4)[C@H](NC(=O)c4ccccc4Cl)CC5)C3)CC2)cc1` [Example H-139, 2-Chloro-N-[(1R)-6-[8-(4-methoxyphenyl)-3,8-diazaspiro[4.5]decane-3-carbonyl]-2,3-dihydro-1H-inden-1-yl]-benzamide], the results for the inhibition at 10 µM in assay [1] and in assay [2] were 31% and 98%, respectively.

In the case of `N#Cc1ccc(N2CCC3(CCN(C(=O)c4ccc5c(c4)[C@H](NC(=O)c4ccccc4Cl)CC5)C3)CC2)cc1` [Example H-140, 2-Chloro-N-[(1R)-6-[8-(4-cyano-phenyl)-3,8-diazaspiro[4.5]decane-3-carbonyl]-2,3-dihydro-1H-inden-1-yl]-benzamide], the results for the inhibition at 10 µM in assay [1] and in assay [2] were 70% and 100%, respectively.

As for `O=C(N[C@@H]1CCc2ccc(C(=O)N3CCC4(CCN(c5ccncc5)CC4)C3)cc21)c1cc(F)ccc1Cl` [Example H-141, 2-Chloro-5-fluoro-N-[(1R)-6-(8-pyridin-4-yl-3,8-diazaspiro[4.5]decane-3-carbonyl)-2,3-dihydro-1H-inden-1-yl]-benzamide], the inhibition at 10 µM in assay [1] was 99%; in assay [2] it was 101%.

As to `O=C(c1ccc2c(c1)[C@H](NS(=O)(=O)c1cc(Cl)ccc1Cl)CC2)N1CCC2(CCN(c3ccncc3)CC2)C1` [Example H-142, 2,5-Dichloro-N-[(1R)-6-(8-pyridin-4-yl-3,8-diazaspiro[4.5]decane-3-carbonyl)-2,3-dihydro-1H-inden-1-yl]-benzenesulfonic acid amide], the inhibition at 10 µM in assay [1] turned out to be 98%; in assay [2], 103%.

With `CC(C)CC(=O)N[C@@H]1CCc2ccc(C(=O)N3CCC4(CCN(c5ccncc5)CC4)C3)cc21` [Example H-143, 3-Methyl-N-[(1R)-6-(8-pyridin-4-yl-3,8-diazaspiro[4.5]decane-3-carbonyl)-2,3-dihydro-1H-inden-1-yl]-butyramide], the inhibition at 10 µM was 100% in assay [1] and 105% in assay [2].

`COc1ccc(S(=O)(=O)N[C@@H]2CCc3ccc(C(=O)N4CCC5(CCN(c6ccncc6)CC5)C4)cc32)c(C(F)(F)F)c1` [Example H-144, 4-Methoxy-N-[(1R)-6-(8-pyridin-4-yl-3,8-diazaspiro[4.5]decane-3-carbonyl)-2,3-dihydro-1H-inden-1-yl]-2-(trifluoromethyl)-benzenesulfonic acid amide]: the inhibition at 10 µM in assay [1] stood at 99%; in assay [2], 104%.

Regarding `CC(C(=O)N[C@@H]1CCc2ccc(C(=O)N3CCC4(CCN(c5ccncc5)CC4)C3)cc21)c1ccccc1Cl` (stereo partly drawn) [Example H-145, 2-(2-Chlorophenyl)-N-[(1R)-6-(8-pyridin-4-yl-3,8-diazaspiro[4.5]decane-3-carbonyl)-2,3-dihydro-H-inden-1-yl]-propionamide], the inhibition at 10 µM in assay [1] came out at 100%; in assay [2], 101%.

As for `CC(C)(C(=O)N[C@@H]1CCc2ccc(C(=O)N3CCC4(CCN(c5ccncc5)CC4)C3)cc21)c1ccccc1Cl` [Example H-146, 2-(2-Chlorophenyl)-2-methyl-N-[(1R)-6-(8-pyridin-4-yl-3,8-diazaspiro[4.5]decane-3-carbonyl)-2,3-dihydro-1H-inden-1-yl]-propionamide], the figures for the inhibition at 10 µM in assay [1] and in assay [2] were 100% and 102%, respectively.

Regarding `COc1ccc(S(=O)(=O)N[C@@H]2CCc3ccc(C(=O)N4CCC5(CCN(c6ccncc6)CC5)C4)cc32)c(C)c1` [Example H-147, 4-Methoxy-2-methyl-N-[(1R)-6-(8-pyridin-4-yl-3,8-diazaspiro[4.5]decane-3-carbonyl)-2,3-dihydro-1H-inden-1-yl]-benzenesulfonic acid amide], the inhibition at 10 µM is 100% in assay [1] and 104% in assay [2].

As to `O=C(c1ccc2c(c1)[C@H](NC(=O)C1(c3ccccc3Cl)CC1)CC2)N1CCC2(CCN(c3ccncc3)CC2)C1` [Example H-148, 1-(2-Chlorophenyl)-N-[(1R)-6-(8-pyridin-4-yl-3,8-diazaspiro[4.5]decane-3-carbonyl)-2,3-dihydro-1H-inden-1-yl]-cyclopropane-1-carboxylic acid amide], the inhibition at 10 µM came out at 100% in assay [1] and 101% in assay [2].
